This passage reports IC50 results from BindingDB's records for doi:10.1016/j.bmc.2019.115091 (Kyowa Kirin, 2019).

Structures are written as SMILES.

The test can be described thus: Inhibition of chemR23 expressed in human CAL1 cells assessed as reduction in chemerin-induced chemotaxis incubated for 4 hrs by cell counting based CellTiter-Glo assay. (In general: ATP-based viability assays read luminescence as a measure of living cells.)

For `CCCCN(c1nc2cc(C(=O)NC)ccc2o1)[C@H](C)c1ccc(-c2ccccc2-c2nnn[nH]2)cc1`, the IC50 stood at 380 nM.

For orientation: IC50 means the point on the concentration scale where inhibition reaches its midpoint.
